Source: the supplement of paper PMC10307832

How the values were obtained:
Assay in all cases: relative viability (nuclei count vs DMSO), 5 days (fraction); higher = more cells survive
[1] = compound: Cn1cc(-c2cnc3ccc4ccc(CS(=O)(=O)NCc5ccccn5)cc4c(=O)c3c2)cn1 [MK-8033] + CC1(C)CCC(c2ccc(Cl)cc2)=C(CN2CCN(c3ccc(C(=O)NS(=O)(=O)c4ccc(N[C@H](CCN5CCOCC5)CSc5ccccc5)c(S(=O)(=O)C(F)(F)F)c4)cc3)CC2)C1 [Navitoclax] (partner 0.5 µM)
Procedure, shortened: (§1)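 The day after seeding in 1536-well plates, lung cancer cell lines were treated by pin tool with a single drug, or with a fixed anchor-drug dose together with five library-drug doses (not always all listed) in √10 steps. After 5 days, a combined fix-and-stain solution (final 0.05% Triton X-100, 1% formaldehyde, 1 ug/ml Hoechst) was added. Nuclei counted on 4× images gave relative viability as treated counts over vehicle counts, reported as the median of duplicate plates.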

[2] = compound: Cn1cc(-c2cnc3ccc4ccc(CS(=O)(=O)NCc5ccccn5)cc4c(=O)c3c2)cn1 [MK-8033] + COc1cc2c(Oc3ccc(NC(=O)C4(C(=O)Nc5ccc(F)cc5)CC4)cc3F)ccnc2cc1OCCCN1CCOCC1 [Foretinib] (partner 0.25 µM)
Procedure, shortened: as §1

[3] = compound: Cn1cc(-c2cnc3ccc4ccc(CS(=O)(=O)NCc5ccccn5)cc4c(=O)c3c2)cn1 [MK-8033] + Cc1nc(Nc2ncc(C(=O)Nc3c(C)cccc3Cl)s2)cc(N2CCN(CCO)CC2)n1 [Dasatinib] (partner 0.075 µM)
Procedure, shortened: as §1

[4] = compound: Cn1cc(-c2cnc3ccc4ccc(CS(=O)(=O)NCc5ccccn5)cc4c(=O)c3c2)cn1 [MK-8033] + Nc1nc2[nH]cc(CCc3ccc(C(=O)N[C@@H](CCC(=O)O)C(=O)O)cc3)c2c(=O)[nH]1 [Pemetrexed] (partner 0.2 µM)
Procedure, shortened: as §1

Cell Line | relative viability ([1]; first compound 0.02 µM) | relative viability ([1]; first compound 0.06325 µM) | relative viability ([1]; first compound 0.2 µM) | relative viability ([1]; first compound 0.6325 µM) | relative viability ([1]; first compound 2 µM) | relative viability ([2]; first compound 0.02 µM) | relative viability ([2]; first compound 0.06325 µM) | relative viability ([2]; first compound 0.2 µM) | relative viability ([2]; first compound 0.6325 µM) | relative viability ([2]; first compound 2 µM) | relative viability ([3]; first compound 0.02 µM) | relative viability ([3]; first compound 0.06325 µM) | relative viability ([3]; first compound 0.2 µM) | relative viability ([3]; first compound 0.6325 µM) | relative viability ([3]; first compound 2 µM) | relative viability ([4]; first compound 0.02 µM) | relative viability ([4]; first compound 0.06325 µM) | relative viability ([4]; first compound 0.2 µM) | relative viability ([4]; first compound 0.6325 µM) | relative viability ([4]; first compound 2 µM)
ChaGo-K-1 | 1.2 | 0.962 | 0.945 | 1.04 | 0.922 | 0.891 | 0.834 | 1.05 | 0.967 | 0.628 | 0.603 | 0.588 | 0.527 | 0.66 | 0.641 | 0.251 | 0.223 | 0.253 | 0.267 | 0.262
EBC-1 | 0.428 | 0.383 | 0.474 | 0.404 | 0.13 | 0.103 | 0.0762 | 0.0977 | 0.126 | 0.0876 | – | – | – | – | – | – | – | – | – | –
EKVX | 0.939 | 0.923 | 0.916 | 0.82 | 0.96 | 0.849 | 0.702 | 0.79 | 0.48 | 0.968 | 0.519 | 0.499 | 0.569 | 0.434 | 0.551 | 0.373 | 0.344 | 0.337 | 0.34 | 0.424
EMC-BAC-2 | 1.16 | 1.06 | 1.12 | 1.14 | 1.15 | 0.899 | 0.942 | 0.936 | 1.05 | 0.971 | 0.324 | 0.325 | 0.327 | 0.33 | 0.339 | 0.453 | 0.406 | 0.46 | 0.419 | 0.439
EPLC-272H | 1.12 | – | 1.07 | 0.853 | 1.08 | 0.608 | 0.537 | 0.61 | 0.605 | 0.507 | 0.375 | 0.273 | 0.297 | 0.319 | 0.336 | 0.359 | 0.357 | 0.345 | 0.376 | 0.313
H3255 | 0.577 | 0.446 | 0.441 | 0.418 | 0.485 | 0.848 | 0.619 | 0.831 | 0.596 | 0.757 | 0.366 | 0.347 | 0.299 | 0.319 | 0.438 | 0.56 | 0.49 | 0.571 | 0.582 | 0.565
HARA | 1.1 | 1.14 | 1.15 | 1.1 | 1.16 | 0.772 | 0.781 | 0.884 | 0.548 | 0.997 | 0.28 | 0.255 | 0.223 | 0.188 | 0.258 | 0.289 | 0.212 | 0.227 | 0.264 | 0.229
HCC-15 | 0.744 | 0.706 | 0.679 | 0.668 | 0.668 | 0.977 | 0.919 | 0.994 | 1.04 | 1.02 | 0.639 | 0.541 | 0.542 | 0.6 | 0.616 | 0.222 | 0.221 | 0.236 | 0.237 | 0.194
HCC-44 | 0.874 | 0.911 | 0.912 | 0.963 | 0.899 | – | – | – | – | – | – | – | – | – | – | 0.672 | 0.695 | 0.681 | 0.691 | 0.603
